Series [1] has as its system Bulbar Conjunctiva (conjunctival hyperemia). The experiment in a line: Guinea pig conjunctival hyperemia model. Type of series: in vivo. To be noted: cumulative incidence; percent of eyes scoring +2 or more; scored 1, 2, 3, 4 hours after instillation. How it is done:
A guinea pig model was used to assess the potential of the compounds to cause conjunctival hyperemia as measured by vasodilation. Compound was instilled and hyperemia was scored at 1, 2, 3, and 4 hours following dosing. Reported above is the cumulative incidence of hyperemia over the 4 hour period. Incidence of hyperemia (Bulbar Conjunctiva) was calculated as the percent of eyes scoring +2 or more, according to the following graded scale: 0 Normal appearance of vessels at limbus and rectus muscle 1 Enlargement of vessels normally visible at limbus and rectus muscle 2 Branching of vessels at limbus, additional vessels visible 3 Additional vessels visible in open bulbar conjunctival areas 4 Diffuse redness in open bulbar conjunctival areas

For series [2], the system named is laser-induced hypertensive primates. The experiment in a line: IOP in laser-induced ocular hypertensive monkeys (lasered MIOP), topical dosing. In kind it is in vivo, monkey. To be noted: for MIOP IOP % Reduction, 1 hour: 1 hour post-dose; for MIOP IOP % Reduction, 3 hours: 3 hours post-dose; for MIOP IOP % Reduction, 6 hours: 6 hours post-dose. How it is done:
Monkey intraocular pressure (MIOP) were obtained from laser-induced hypertensive primates in the manner described in Examples 1 and 4 below at 1, 3, and 6 hours post-dose.
(§1) The hydrochloride salt of Compound II, also known as fasudil hydrochloride or just fasudil, was topically administered to eyes of ocular normotensive and hypertensive monkeys, New Zealand Albino (NZA) and Dutch Belted (DB) rabbits.

Series [3] concerns ocular normotensive monkey. In words: IOP in ocular normotensive monkeys, topical dosing. In kind it is in vivo, cynomolgus monkey. How it is done:
as §1
The effect of repeated doses of Compound II on the magnitude and duration of IOP reduction was evaluated in ocular normotensive monkeys.

Series [4] has as its system Dutch Belted (DB) rabbit. In words: IOP in Dutch Belted rabbits, topical dosing. In kind it is in vivo. On the procedure: as §1
Compound II (hydrochloride) was administered topically to the eyes of Dutch Belted (DB) rabbits in doses of 75 and 150 μg.

The test system of series [5] is New Zealand Albino (NZA) rabbit. In words: IOP in New Zealand Albino rabbits, topical dosing. In kind it is in vivo. To be noted: four hour dose response. On the procedure: as §1
A dose study similar to that described in Example 2 was conducted with the NZA rabbit. Compound II (hydrochloride) was administered in a topical ocular fashion in doses of 50, 125 and 250 μg.
Other isoquinolinesulfonamides were topically administered to the eyes of New Zealand Albino (NZA) rabbits.
All drugs were administered to eyes in a topical manner at a dose=500 μg (2×25 μl). All compounds were formulated in phosphate buffered saline containing 0.01% benzalkonium chloride, and in all instances N=7.

Regarding `O=S(=O)(c1cccc2c(Cl)nccc12)N1CCNCC1` [1-(1-chloro-5-isoquinolinesulfonyl)-piperazine], the “Guinea Pig Hyperemia (Cumulative over 4 hours)” value in series [1] is reported as 10%. Moreover, in series [2] (dose 500 μg), the “MIOP IOP % Reduction, 1 hour” value is given as 7.9%; the “MIOP IOP % Reduction, 3 hours” value was 11.9%; the “MIOP IOP % Reduction, 6 hours” value was found to be 9.4%.
As for `CC1CN(S(=O)(=O)c2cccc3cnccc23)CCN1` (stereo not shown) [Example H-7, 1-(5-isoquinolinesulfonyl)-3-methylpiperazine], the “Guinea Pig Hyperemia (Cumulative over 4 hours)” value in series [1] is 0%. Further, in series [2] (dose 1000 μg), the “MIOP IOP % Reduction, 1 hour” value is given as 30.9%; the “MIOP IOP % Reduction, 3 hours” value stood at 20.9%; the “MIOP IOP % Reduction, 6 hours” value is 11.6%.
For `O=S(=O)(c1cccc2cnccc12)N1CCCNCC1` [Fasudil, hexahydro-1-(5-isoquinolinylsulfonyl)-1H-1,4-diazepine], the “Guinea Pig Hyperemia (Cumulative over 4 hours)” value in series [1] worked out at 75%. Further, in series [2] (dose 500 μg), the “MIOP IOP % Reduction, 1 hour” value is listed as 21.9%. In addition, in series [2] (dose 500 μg), the “MIOP IOP % Reduction, 3 hours” value was determined as 14.6%. In addition, the “MIOP IOP % Reduction, 6 hours” value in series [2] (dose 500 μg) worked out at 23.4%. Besides, the “IOP lowering” value in series [2] (ocular hypertensive (laser-induced) primates, topical) is “effectively lowered IOP”; in series [3] (ocular normotensive primates, topical), “effectively lowered IOP”; in series [4], “lowered IOP in the DB rabbit; however, the reduction in IOP was not sustained”; in series [5], “IOP was marketedly lowered below base line”. In series [3] (ocular normotensive monkeys, total of 900 μg in three doses, ten minutes apart), the “IOP reduction after repeated doses” value is “significant IOP reduction”.
Consider `CC1CN(S(=O)(=O)c2cccc3cnccc23)C(C)CN1` (stereo not shown) [D, 1-(5-isoquinolinesulfonyl)-2,5-dimethylpiperazine], for which, in series [1], the “Guinea Pig Hyperemia (Cumulative over 4 hours)” value was determined as 20%. In series [2] (dose 500 μg), the “MIOP IOP % Reduction, 1 hour” value stood at 36.3%; the “MIOP IOP % Reduction, 3 hours” value is given as 32.8%; the “MIOP IOP % Reduction, 6 hours” value is listed as 19.3%. Moreover, the “IOP lowering effect” value in series [2] (laser-induced hypertensive primates, compared with the other compounds of Example E) is “markedly superior IOP lowering effect”.
